Experimental data reported in paper PMC7230731 (Marine Drugs, 2020).

Legend:
Format in all cases: cell-based, human
[1] = tested on: MCF-7 cells; experiment: Cell cycle analysis by DNA flow cytometry; conditions: IC50 concentration; for %G0-G1 / %G2/M / %S / %Sub-G1: 24 h
Procedure: Anticancer agents exert their cytotoxic action by aborting cellular proliferation at certain checkpoints. These checkpoints are distinguishable phases in the cell cycle, whose suppression results in termination of the cell proliferation.
The influence of bis-indoles 7e and 9a on cell cycle progression was examined in breast cancer MCF-7 cells, after 24 h of treatment, through DNA flow cytometric assay by the use of BD FACS Caliber flow cytometer, as described previously. The cell cycle distributions were calculated using CellQuest software (Becton Dickinson). […]
The two examined human breast cancer cell lines (MCF-7 and Breast MDA-MB-231), and non-tumorigenic human breast epithelial cell line (MCF-10A) have been obtained from American Type Culture Collection (ATCC). The cells were maintained in Dulbecco's modified Eagle's medium (DMEM) supplemented with 10% heat inactivated fetal calf serum (GIBCO), penicillin (100 U/ml) and streptomycin (100 µg/ml) at 37 °C in humidified atmosphere containing 5% CO2. Cells at a concentration of 0.50 x 106 were grown in a 25 cm2 flask in 5 ml of culture medium. […]
Breast cancer MCF-7 cells were treated with bis-indoles 7e and 9a for 24 h (at their IC50 concentration), and then cells were washed twice with ice-cold phosphate buffered saline (PBS). Subsequently, the treated cells were collected by centrifugation, fixed in ice-cold 70% (v/v) ethanol, washed with PBS, re-suspended with 100 μg/mL RNase, stained with 40 μg/mL PI, and analyzed by flow cytometry using FACS Calibur (Becton Dickinson, BD, Franklin Lakes, NJ, USA). The cell cycle distributions were calculated using CellQuest software 5.1 (Becton Dickinson).

[2] = tested on: Bcl-2; experiment: ELISA immunoassay, Bcl-2 level; conditions: MCF-7 cells; for Bcl-2: IC50 concentration, 48 h
From the text: (§1) Synchronization of the mitochondrial pathway is headed by the Bcl-2 family of proteins. These proteins are classified into two groups: anti-apoptotic proteins exemplified by Bcl-2 protein and the counteracting pro-apoptotic proteins including Bax protein [21]. As induction of the apoptotic machinery is one of the most useful strategies in cancer therapy, we investigated the effect of our compounds to boost the pro-apoptotic protein; Bax and reduce the anti-apoptotic protein; Bcl-2 in an attempt to explore the underlying mechanism for their cytotoxic activity (Table 1). […] Fortunately, both compounds markedly boosted the level of Bax by 8.3- and 6.4-fold, respectively (Table 4, Figure 3).
(§2) Effects of treatment of breast cancer MCF-7 cells with bis-indoles 7e and 9a on the expression levels of the pro-apoptotic markers (Bax, caspase-3, and p53) in addition to the anti-apoptotic protein Bcl-2 marker was assessed by the use of ELISA colorimetric kits as per the manufacturer’s instructions, as described earlier.
(§3) The levels of the pro-apoptotic markers (Bax, caspase-3 and p53) as well as the anti-apoptotic marker Bcl-2 were determined using ELISA colorimetric kits per the manufacturer’s instructions. Breast cancer MCF-7 cells were cultured as a monolayer in T-25 flasks and were seeded to attain 30% confluency prior to treatment. Cells were […]
(§4) At the end of treatment, cells were collected via trypsinization and centrifuged at 10,000 rpm. The pellet was then rinsed with PBS and lysed in RIPA lysis buffer at 4 °C for 45 min, then centrifuged at 14,000 rpm for 20 min to remove the cellular debris. Lysates were then collected and stored at −80 °C for later protein determination using Pierce BCA Protein Assay Kit according to manufacturer’s recommendations.
(§5) The cell lysate was diluted 10 times, and 100 μL ([…]) was added to the wells of four separate microtiter plates for the four ELISA kits that were pre-coated with primary antibodies specific to Bax, Bcl-2, caspase-3 and p53 proteins, respectively. A secondary biotin-linked antibody specific to the protein captured by the primary antibody was further added to bind the captured protein, forming a “sandwich” of specific antibodies around the desired protein in the cell lysate. The streptavidin-HRP complex was then used to bind the biotin-linked secondary antibody through its streptavidin portion. The HRP domain reacted with the added TMB substrate to form a colored product that measured at 450 nm by a plate reader ChroMate-4300 after the reaction was terminated via the addition of stop solution. […]

[3] = tested on: Bax/Bcl-2; experiment: Bax/Bcl-2 ratio from ELISA; conditions: MCF-7 cells; for Bax/Bcl-2: IC50 concentration, 48 h
From the text: as §1, §2, §3, §4, §5

[4] = tested on: p53; experiment: ELISA immunoassay, p53 level; conditions: MCF-7 cells; for p53: IC50 concentration, 48 h
Procedure: Moreover, their effect on the level of caspase-3; the executioner caspase and p53 was evaluated in the MCF-7 cell line. […] In addition, they augmented the level of p53 by 15.4- and 11.75-fold, respectively in comparison to the control (Table 5, Figure 3).
as §2, §3, §4, §5

[5] = tested on: MCF-7 cells; experiment: Annexin V-FITC/PI apoptosis assay; conditions: IC50 concentration; for Total (L.R % + U.R %): early + late apoptosis
Procedure: Annexin V-based flow cytometry analysis is a useful tool to investigate whether cell death is pertaining to physiological apoptosis or nonspecific necrosis. Evaluation of the apoptotic effect of bis-indoles 7e and 9a was carried out using AnxV-FITC/DAPI dual staining assay (Figure 4).
The apoptotic action of bis-indoles 7e and 9a was further explored through the investigation of their effect on the phosphatidylserine externalization in breast cancer MCF-7 cells, using Annexin-V-FITC Apoptosis Detection Kit according to manufacturer’s protocol, as reported earlier. […]
4. Annexin V-FITC Apoptosis Assay
Phosphatidylserine externalization was assayed using Annexin V-FITC/PI apoptosis detection kit (BD Biosciences, USA) according to the manufacturer’s instructions. Breast cancer MCF-7 cells were cultured to a monolayer then treated with bis-indoles 7e and 9a at their IC50 concentration. Briefly, cells were then harvested via trypsinization, and rinsed twice in PBS followed by binding buffer. Moreover, cells were re-suspended in 100 μL of binding buffer with the addition of 1 μL of FITC-Annexin V followed by an incubation period of 30 min at 4 °C. Cells were then rinsed in binding buffer and resuspended in 150 μL of binding buffer with the addition of 1 μL of DAPI (1 μg/μL in PBS). Cells were then analyzed using the flow cytometer BD FACS Canto II and the results were interpreted with FlowJo7.6.4 software (Tree Star, Ashland, OR, USA).

SMILES | augmentation of proportion of cells in G2/M phase vs control [1] | augmentation of proportion of cells in Sub-G1 phase vs control [1] | %G0-G1 [1] | %G2/M [1] | %S [1] | %Sub-G1 [1] | decrease of Bcl-2 level vs control [2] | Bcl-2 [2] | Bax/Bcl-2 ratio augmentation vs control [3] | Bax/Bcl-2 [3] | increase of p53 level vs control [4] | p53 [4] | Early Apoptosis (Lower Right %) [5] | Late Apoptosis (Upper Right %) [5] | increase in total apoptosis percentage vs control [5] | Total (L.R % + U.R %) [5]
C=CCN1C(=O)C(=NNC(=O)Cc2c[nH]c3ccccc23)c2ccccc21 [Compound 9a, N′-(1-Allyl-2-oxoindolin-3-ylidene)-2-(1H-indol-3-yl)acetohydrazide] | 2.21 fold | 13.42 fold | 43.82% | 31.27% | 24.91% | 24.02% | 1.74 fold | 2.67 ± 0.16 ng/mg of Total Protein | 11.1 fold | 91.2 | 11.75 fold | 482.3 ± 27.4 pg/mg | 7.01% | 15.20% | 16.8 fold | 22.21%
O=C(Cc1c[nH]c2ccccc12)NN=C1C(=O)Nc2ccc([N+](=O)[O-])cc21 [Compound 7e, 2-(1H-Indol-3-yl)-N′-(5-nitro-2-oxoindolin-3-ylidene)acetohydrazide] | 3 fold | 18.77 fold | 31.66% | 42.9% | 25.44% | 33.61% | 2.25 fold | 2.07 ± 0.14 ng/mg of Total Protein | 18.65 fold | 153.6 | 15.4 fold | 631.8 ± 35.8 pg/mg | 9.56% | 21.76% | 23.7 fold | 31.32%
